Numbered stars: 1 amine (or outer) side, 2 acyl side, 3 side chain; on linkers, the order of the positions; unused ones are H or OH. Square brackets hold non-standard residues; d marks the D form. Side chains are listed from the residue outwards. Peptide text beside a SMILES is read from it. * marks the point of attachment. C20 diacid = O=C(O)CCCCCCCCCCCCCCCCCCC(=O)*; γGlu = O=C(O)[C@H](CCC(=O)[*:2])N[*:1]; αMeL = CC(C)C[C@](C)(N)C(=O)O; αMeK = C[C@](N)(CCCCN)C(=O)O; AEEA = NCCOCCOCC(=O)O; Aib = CC(C)(N)C(=O)O
Assays:
human Gcg receptor = biological target: T1, human Gcg receptor (Homo sapiens, UniProt P47871); experiment: [125I]-Glucagon binding (SPA), human Gcg receptor; conditions: read-out: hGLcgR Ki, nM (SEM, n)
T1 construct: expressed in transfected cells; crude membranes
In short: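 Crude membranes from cells expressing the receptor, prepared by hypotonic lysis in 50 mM Tris HCl pH 7.5 with protease inhibitors, homogenization and differential centrifugation, were used in a WGA-bead SPA. Binding buffer: 25 mM HEPES pH 7.4, 2.5 mM CaCl2, 1 mM MgCl2, bacitracin, Tween-20.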

human GLP-1R = human GLP-1R (Homo sapiens, UniProt P43220); experiment: [125I]-GLP-1 binding (SPA), human GLP-1 receptor; parameters: expressed in transfected cells; crude membranes; conditions: read-out: hGLP1R Ki, (nM) (SEM, n)
In short: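 Crude-membrane binding assay; one membrane prep included 1 mM MgCl2 and 25 units/ml DNAse I during lysis. Assay buffer at pH 7.4 contains 0.1% (w/v) bacitracin and 0.003% (w/v) TWEEN-20. Ki is reported as geometric mean.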

[1] = biological target: human GLP-1 receptor (GLP-1R) (Homo sapiens, UniProt P43220); experiment: cAMP pharmacological functional assay in presence of casein, hGLP-1R; assay type: cell-based; conditions: HEK293 cells expressing hGLP-1R, 0.1% Casein, geometric mean; read-out: hGLP1R cAMP Rel EC50 nM (SEM, n)
human GIP receptor = biological target: T2, human GIP receptor (Homo sapiens, UniProt P48546); experiment: [125I]-GIP binding (SPA), human GIP receptor; conditions: read-out: hGIPR Ki, nM (SEM, n)
T2 construct: expressed in transfected cells; crude membranes
T2 sequence (P48546 22-466): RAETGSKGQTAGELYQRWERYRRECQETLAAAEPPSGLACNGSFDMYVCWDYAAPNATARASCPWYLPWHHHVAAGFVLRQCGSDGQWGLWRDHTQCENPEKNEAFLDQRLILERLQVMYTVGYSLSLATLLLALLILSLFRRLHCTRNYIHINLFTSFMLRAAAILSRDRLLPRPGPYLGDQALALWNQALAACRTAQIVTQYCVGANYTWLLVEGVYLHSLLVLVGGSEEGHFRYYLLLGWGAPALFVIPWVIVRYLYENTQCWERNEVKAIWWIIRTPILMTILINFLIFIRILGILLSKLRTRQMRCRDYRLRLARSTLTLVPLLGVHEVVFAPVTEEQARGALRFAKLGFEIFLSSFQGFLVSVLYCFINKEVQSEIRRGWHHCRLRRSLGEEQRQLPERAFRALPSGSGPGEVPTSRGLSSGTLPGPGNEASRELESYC

[2] = biological target: T3, gastric inhibitory peptide receptor (GIPR) (Homo sapiens, UniProt P48546); experiment: cAMP pharmacological functional assay in presence of casein, hGIPR; assay type: cell-based; conditions: HEK293 cells expressing hGIPR, 0.1% Casein, geometric mean; read-out: hGIPR cAMP Rel EC50 nM (SEM, n)
T3 sequence (P48546 22-466): T2 sequence (P48546 22-466)

T1 sequence (P47871 26-477): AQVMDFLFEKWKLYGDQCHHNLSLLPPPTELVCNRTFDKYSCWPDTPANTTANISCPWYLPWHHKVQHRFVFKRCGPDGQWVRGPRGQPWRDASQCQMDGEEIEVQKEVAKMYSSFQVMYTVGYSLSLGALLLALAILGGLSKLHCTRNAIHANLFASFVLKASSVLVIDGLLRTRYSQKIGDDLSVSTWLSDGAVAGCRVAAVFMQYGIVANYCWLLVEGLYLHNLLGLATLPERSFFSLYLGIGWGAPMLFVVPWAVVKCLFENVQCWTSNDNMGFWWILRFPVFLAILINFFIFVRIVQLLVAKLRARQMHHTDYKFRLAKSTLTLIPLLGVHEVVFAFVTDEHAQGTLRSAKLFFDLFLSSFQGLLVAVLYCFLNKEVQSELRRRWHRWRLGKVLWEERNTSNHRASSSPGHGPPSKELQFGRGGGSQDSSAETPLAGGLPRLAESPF
Sequence of human GLP-1R (P43220 24-463): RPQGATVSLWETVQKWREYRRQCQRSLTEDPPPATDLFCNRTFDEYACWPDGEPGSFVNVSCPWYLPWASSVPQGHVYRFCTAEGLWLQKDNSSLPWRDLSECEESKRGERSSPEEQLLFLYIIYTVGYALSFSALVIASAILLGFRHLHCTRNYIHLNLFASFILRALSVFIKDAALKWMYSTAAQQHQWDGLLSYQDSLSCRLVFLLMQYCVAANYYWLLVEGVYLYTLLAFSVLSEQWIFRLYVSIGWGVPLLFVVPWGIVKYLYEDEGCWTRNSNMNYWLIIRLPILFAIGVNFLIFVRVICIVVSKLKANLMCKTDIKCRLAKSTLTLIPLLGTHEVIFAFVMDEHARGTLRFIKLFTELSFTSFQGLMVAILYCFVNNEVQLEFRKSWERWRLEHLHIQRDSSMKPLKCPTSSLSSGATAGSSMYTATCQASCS
Sequence of human GLP-1 receptor (GLP-1R) (P43220 24-463): as above

Row | SMILES | Ki (human Gcg receptor) | Ki (human GLP-1R) | EC50 [1] | Ki (human GIP receptor) | EC50 [2]
1 | CC[C@H](C)[C@H](NC(=O)[C@H](Cc1ccccc1)NC(=O)[C@H](C)NC(=O)C(C)(C)NC(=O)[C@H](CCC(N)=O)NC(=O)[C@H](C)NC(=O)[C@H](CCCCNC(=O)COCCOCCNC(=O)COCCOCCNC(=O)CC[C@H](NC(=O)CCCCCCCCCCCCCCCCCCC(=O)O)C(=O)O)NC(=O)[C@H](CCCCN)NC(=O)[C@H](CC(=O)O)NC(=O)[C@H](CC(C)C)NC(=O)[C@H](CC(C)C)NC(=O)[C@@H](NC(=O)[C@H](CO)NC(=O)[C@H](Cc1ccc(O)cc1)NC(=O)[C@H](CC(=O)O)NC(=O)[C@H](CO)NC(=O)[C@@H](NC(=O)[C@H](Cc1ccccc1)NC(=O)[C@@H](NC(=O)CNC(=O)[C@H](CCC(=O)O)NC(=O)C(C)(C)NC(=O)[C@@H](N)Cc1c[nH]cn1)[C@@H](C)O)[C@@H](C)O)[C@@H](C)CC)C(=O)N[C@@H](CCC(=O)O)C(=O)N[C@@H](Cc1ccc(O)cc1)C(=O)N[C@@H](CC(C)C)C(=O)N[C@H](C(=O)N[C@@H](CCC(=O)O)C(=O)NC(C)(C)C(=O)NCC(=O)N1CCC[C@H]1C(=O)N[C@@H](CO)C(=O)N[C@@H](CO)C(=O)NCC(=O)N[C@@H](C)C(=O)N1CCC[C@H]1C(=O)N1CCC[C@H]1C(=O)N1CCC[C@H]1C(=O)N[C@@H](CO)C(N)=O)[C@@H](C)CC [Example 16] (H-H[Aib]EGTFTSDYSILLDKK([AEEA-AEEA-γGlu-C20 diacid])AQ[Aib]AFIEYLIE[Aib]GPSSGAPPPS-NH2) | 371 nM | 2.78 nM | 0.0437 nM | 0.0841 nM | 0.975 nM
2 | CC[C@H](C)[C@H](NC(=O)[C@H](CCCCN)NC(=O)[C@H](CC(=O)O)NC(=O)[C@H](CC(C)C)NC(=O)[C@H](CC(C)C)NC(=O)[C@@H](NC(=O)[C@H](CO)NC(=O)[C@H](Cc1ccc(O)cc1)NC(=O)[C@H](CC(=O)O)NC(=O)[C@H](CO)NC(=O)[C@@H](NC(=O)[C@H](Cc1ccccc1)NC(=O)[C@@H](NC(=O)CNC(=O)[C@H](CCC(=O)O)NC(=O)C(C)(C)NC(=O)[C@@H](N)Cc1c[nH]cn1)[C@@H](C)O)[C@@H](C)O)[C@@H](C)CC)C(=O)N[C@@H](C)C(=O)N[C@@H](CCC(N)=O)C(=O)N[C@@H](CCCCNC(=O)COCCOCCNC(=O)COCCOCCNC(=O)CC[C@H](NC(=O)CCCCCCCCCCCCCCCCCCC(=O)O)C(=O)O)C(=O)N[C@@H](C)C(=O)N[C@@H](Cc1ccccc1)C(=O)N[C@H](C(=O)N[C@@H](CCC(=O)O)C(=O)N[C@@H](Cc1ccc(O)cc1)C(=O)N[C@@H](CC(C)C)C(=O)N[C@@H](CC(C)C)C(=O)N[C@@H](CCC(=O)O)C(=O)NC(C)(C)C(=O)NCC(=O)N1CCC[C@H]1C(=O)N[C@@H](CO)C(=O)N[C@@H](CO)C(=O)NCC(N)=O)[C@@H](C)CC [Example 17] (H-H[Aib]EGTFTSDYSILLDKIAQK([AEEA-AEEA-γGlu-C20 diacid])AFIEYLLE[Aib]GPSSG-NH2; N-terminus assumed) | 261 nM | 7.63 nM | 0.152 nM | 0.606 nM | 5.81 nM
3 | CC[C@H](C)[C@H](NC(=O)[C@H](CC(C)C)NC(=O)[C@H](Cc1ccc(O)cc1)NC(=O)[C@H](CCC(=O)O)NC(=O)[C@@H](NC(=O)[C@H](Cc1ccccc1)NC(=O)[C@H](C)NC(=O)C(C)(C)NC(=O)[C@H](CCC(N)=O)NC(=O)[C@H](C)NC(=O)[C@H](CCCCNC(=O)COCCOCCNC(=O)COCCOCCNC(=O)CC[C@H](NC(=O)CCCCCCCCCCCCCCCCCCC(=O)O)C(=O)O)NC(=O)[C@H](CCCCN)NC(=O)[C@H](CC(=O)O)NC(=O)[C@H](CC(C)C)NC(=O)[C@](C)(CC(C)C)NC(=O)[C@@H](NC(=O)[C@H](CO)NC(=O)[C@H](Cc1ccc(O)cc1)NC(=O)[C@H](CC(=O)O)NC(=O)[C@H](CO)NC(=O)[C@@H](NC(=O)[C@H](Cc1ccccc1)NC(=O)[C@@H](NC(=O)CNC(=O)[C@H](CCC(=O)O)NC(=O)C(C)(C)NC(=O)[C@@H](N)Cc1ccc(O)cc1)[C@@H](C)O)[C@@H](C)O)[C@@H](C)CC)[C@@H](C)CC)C(=O)N[C@@H](CCC(=O)O)C(=O)NCC(=O)NCC(=O)N1CCC[C@H]1C(=O)N[C@@H](CO)C(=O)N[C@@H](CO)C(=O)NCC(=O)N[C@@H](C)C(=O)N1CCC[C@H]1C(=O)N1CCC[C@H]1C(=O)N1CCC[C@H]1C(=O)N[C@@H](CO)C(N)=O [Example 20] | 228 nM | 3.3 nM | 0.117 nM | 0.0849 nM | 0.0556 nM
4 | CC[C@H](C)[C@H](NC(=O)[C@H](Cc1ccccc1)NC(=O)[C@H](C)NC(=O)[C@](C)(CCCCN)NC(=O)[C@H](CCC(N)=O)NC(=O)[C@H](C)NC(=O)[C@H](CCCCNC(=O)COCCOCCNC(=O)COCCOCCNC(=O)CC[C@H](NC(=O)CCCCCCCCCCCCCCCCCCC(=O)O)C(=O)O)NC(=O)[C@H](CCC(=O)O)NC(=O)[C@H](CC(=O)O)NC(=O)[C@H](CC(C)C)NC(=O)[C@](C)(CC(C)C)NC(=O)[C@@H](NC(=O)[C@H](CO)NC(=O)[C@H](Cc1ccc(O)cc1)NC(=O)[C@H](CC(=O)O)NC(=O)[C@H](CO)NC(=O)[C@@H](NC(=O)[C@H](Cc1ccccc1)NC(=O)[C@@H](NC(=O)CNC(=O)[C@H](CCC(=O)O)NC(=O)C(C)(C)NC(=O)[C@@H](N)Cc1ccc(O)cc1)[C@@H](C)O)[C@@H](C)O)[C@@H](C)CC)C(=O)N[C@@H](CCC(=O)O)C(=O)N[C@@H](Cc1ccc(O)cc1)C(=O)N[C@@H](CC(C)C)C(=O)N[C@@H](CC(C)C)C(=O)N[C@@H](CCC(=O)O)C(=O)NCC(=O)NCC(=O)N1CCC[C@H]1C(=O)N[C@@H](CO)C(=O)N[C@@H](CO)C(=O)NCC(=O)N[C@@H](C)C(=O)N1CCC[C@H]1C(=O)N1CCC[C@H]1C(=O)N1CCC[C@H]1C(=O)N[C@@H](CO)C(N)=O [Example 21] (H-Y[Aib]EGTFTSDYSI[αMeL]LDEK([AEEA-AEEA-γGlu-C20 diacid])AQ[αMeK]AFIEYLLEGGPSSGAPPPS-NH2) | 149 nM | 14.5 nM | 0.16 nM | 0.529 nM | 0.0748 nM
5 | CC[C@H](C)[C@H](NC(=O)[C@H](Cc1ccccc1)NC(=O)[C@H](C)NC(=O)[C@](C)(CCCCN)NC(=O)[C@H](CCC(N)=O)NC(=O)[C@H](C)NC(=O)[C@H](CCCCNC(=O)COCCOCCNC(=O)COCCOCCNC(=O)CC[C@H](NC(=O)CCCCCCCCCCCCCCCCCCC(=O)O)C(=O)O)NC(=O)[C@H](CCC(=O)O)NC(=O)[C@H](CC(=O)O)NC(=O)[C@H](CC(C)C)NC(=O)[C@](C)(CC(C)C)NC(=O)[C@@H](NC(=O)[C@H](CO)NC(=O)[C@H](Cc1ccc(O)cc1)NC(=O)[C@H](CC(=O)O)NC(=O)[C@H](CO)NC(=O)[C@@H](NC(=O)[C@H](Cc1ccccc1)NC(=O)[C@@H](NC(=O)CNC(=O)[C@H](CCC(=O)O)NC(=O)C(C)(C)NC(=O)[C@@H](N)Cc1ccc(O)cc1)[C@@H](C)O)[C@@H](C)O)[C@@H](C)CC)C(=O)N[C@@H](CCC(=O)O)C(=O)N[C@@H](Cc1ccc(O)cc1)C(=O)N[C@@H](CC(C)C)C(=O)N[C@@H](CC(C)C)C(=O)N[C@@H](CCC(=O)O)C(=O)NC(C)(C)C(=O)NCC(=O)N1CCC[C@H]1C(=O)N[C@@H](CO)C(=O)N[C@@H](CO)C(=O)NCC(=O)N[C@@H](C)C(=O)N1CCC[C@H]1C(=O)N1CCC[C@H]1C(=O)N1CCC[C@H]1C(=O)N[C@@H](CO)C(N)=O [Example 22] (H-Y[Aib]EGTFTSDYSI[αMeL]LDEK([AEEA-AEEA-γGlu-C20 diacid])AQ[αMeK]AFIEYLLE[Aib]GPSSGAPPPS-NH2; N-terminus assumed) | 53.4 nM | 23.1 nM | 0.206 nM | 0.624 nM | 0.0842 nM

— patent publication US12252524B2, “GIP/GLP1 co-agonist compounds” (Eli Lilly and Company, priority 2018, dated 2025)
